According to US11583568B2, “Methods for administering angiotensin II” (La Jolla Pharma, LLC, priority 2017, dated 2023):
Like-named read-outs stand apart in the source and are kept apart here.

Experiments:
[1] = cited from earlier work
[2] = tested on: patients suffering from hypotension; assay: 28-day survival of hypotensive patients given angiotensin II or placebo, by baseline Ang I:Ang II ratio; format: in vivo, human
Method: The ratio of blood concentration of angiotensin I to blood concentration of angiotensin II in patients suffering from hypotension was determined and the patients were administered Angiotensin II or a placebo and their survival monitored for 28 days. In general, a low ratio of blood concentration of angiotensin I to blood concentration of angiotensin II (relative high ANG2 state) is protective across the patient population in multivariate analysis. When assessed by tertile, patients with a low ratio of blood concentration of angiotensin I to blood concentration of angiotensin II had better outcomes as assessed by a 28-day all-cause mortality as compared to high ratio of blood concentration of angiotensin I to blood concentration of angiotensin II (K-M survival curves, FIGS. 1 to 4). […] See also Table I and Table II.

CC[C@H](C)[C@H](NC(=O)[C@H](Cc1ccc(O)cc1)NC(=O)[C@@H](N)C(C)C)C(=O)N[C@@H](Cc1cnc[nH]1)C(=O)N1CCC[C@H]1C(=O)N[C@@H](Cc1ccccc1)C(=O)O [Angiotensin IV, Val-Tyr-Ile-His-Pro-Phe]
Activity relative to angiotensin II ([1]; in words): less activity than angiotensin II

Arg-Val-Tyr-Ile-His-Pro-Phe (RVYIHPF; printed: Arg-Val-Tyr-Ile-His-Pro-Phe) [Angiotensin III]
Activity relative to angiotensin II ([1]; of the activity of angiotensin II): approximately 40%

angiotensin II (DRVYIHPF; printed: Asp-Arg-Val-Tyr-Ile-His-Pro-Phe) [LJPC-501, text says patients were administered Angiotensin II or a placebo]
Mortality at Day 28, Estimate (95% CI) ([2]; Baseline Ang I:Ang II ratio <1.63, n = 70): 41.6% (31.0%-54.0%)
Mortality at Day 28, Estimate (95% CI) ([2]; Baseline Ang I:Ang II ratio ≥1.63, n = 72): 50.0% (39.1%-62.0%)
Survival of patients with elevated Ang I:Ang II ratio ([2]; Elevated ratio patients given angiotensin II, compared with patients with a lower ratio): survival becomes comparable to patients who display a lower angiotensin I to angiotensin II ratio
Treatment effect on 28-day all-cause mortality compared to control ([2]; Patients with the highest Ang I:Ang II ratio (relative low ANG2 state)): large treatment effect compared to control
HR for mortality at Day 28, within treatment group ([2]; Within treatment group, baseline Ang I:Ang II ratio <1.63 vs ≥1.63): 0.80
